In patent US7381521B2, “Anti-pathogenic composition useful in blood preservation” (Altachem Pharma Ltd., priority 2001, dated 2008):
Where “and” joins values, the source holds several entries; their conditions need not be identical. Identical values can stand only once.

Legend:
[1] = system: HIV-1 virus; test: Infectivity of HIV-1 treated 10 minutes with product for normal human T lymphocytes (reverse transcriptase activity, ATI, in culture supernatants); assay type: cell-based
Source text: Infectivity is studied on T lymphocytes obtained from peripheral blood of a healthy human donor and separated on a Ficoll gradient.
The lymphocytes are stimulated for 3 days by phytohaemaglutinin P (PHA P) diluted to 1/500 and cultivated in a complete medium. The blastic cells T are infected by the virus, treated or not, in order to show up residual infectious strength.
The viruses obtained from a supernatant culture of an HIV-1 infected CEM line. This T lymphoblastoid line infected by HIV-1 is used for viral production.
The titer of the supernatant substances used is evaluated after quantitative analysis of the reverse transcriptase activity (ATI) of the virus.
In the following tests, a supernatant substance was used, the ATI of which was 1.8×10^6 cpm/ml.
Preparation of the viral solution: several tubes containing 1 ml viral supernatant, ATI 1.8×10^6 cmp/ml are, concentrated by ultracentrifugation. The resulting virus residues are taken up either by each of the different dilutions of QACs produced in sterile bidistilled water or by water (untreated control virus).
Treatment of viral preparations: the concentrated viral preparations are all treated according to the following procedure:
Treated virus samples: the virus residues concentrated by ultracentrifugation are resuspended in 100, μl of each of the concentrations in terms of products (QACs) studied and incubated for 10 minutes.
Control viral sample: untreated control virus: the product is replaced by 100 μl of sterile bidistilled water.
Following this 10 minute incubation time, the virus present in each sample is rinsed and then reconcentrated by addition of 12 ml of RPMI 1640 medium and ultracentrifugation. The virus residues are then taken up in 1 ml of complete medium and used for infecting normal human T lymphocytes.
Measurement of the infectivity of the samples: 4×10^6 normal human T lymphocytes are infected with each of the treated viral preparations or controls mentioned hereinabove. Infection of the T cells is carried out according to a previously described method (F. Barre Sinoussi et al. Science, 1983, 220:868-871): to sum up, 4×10^6 cells in suspension in 1 ml of complete medium are incubated with 1 ml of each of the treated vial preparations or controls for 1 hour at 37° C.
After two washings using several millilitres of culture medium, the cellular suspensions are adjusted to the concentration of 1×10^6 cells per ml. The day of the infection is regarded as day 0.
Viral production during the course of time is determined by measuring the reverse transcriptase activity present in the culture supernatants using the procedure described below.
This quantitative analysis makes it possible to evaluate the presence of noninactivated residual virus in the staring sample. It is carried out on a basis of 1 ml of culture supernatant taken every 2 or 3 days and ultracentrifuged.
The enzymatic activities are measured in 50 μl of a reaction mixture containing 50 mM Tris pH 7.8, 20 mM MgCl2, 20 mM KCl, 2 mM dithiotreitol, 0.25 OD/ml, oligo dT, 0.25 OD/ml poly rA, 0.1% Triton×100 and 2.5 μCi 3H DTTP.
After incubation for 1 hour at 37° C., the reaction is stopped by the addition of 10 μl of 0.2 M EDTA and the samples are deposited on DE81 membranes.
After several washings using 5% Na2HPO4, then by distilled water, the membranes are dried and the radioactivity measured by means of a p scintillation counter (PACKARD).

[2] = system: C. albicans ATCC 1031; test: Test 2 (DGHM), action as a function of disinfection time at 22° C., 8 × 10^7 organisms/ml; assay type: cell-based, Candida albicans
Method: Another test was carried out a basis of the following solutions • 100 ml of a 0.1% solution of chlorohexidine digluconate (pH 6); and • 100 ml of a 0.1% solution of Bardac22®.
The activity of these solutions, alone or in combination, was more particularly tested in respect of Staphylococcus aureus ATCC 6538, Escherichia coli ATCC 11229 and Candida albicans ATCC 10231.
The tests were conducted in accordance with the procedure described in Chapter I/2.1 and 2.2 of Tichtlinien für die Prüfung und Bewertung chemischer Desinfektionsverfahren der DGHM/Guidelines for Testing and Evaluating Chemical Disinfection Processes of DGHM as at 1.1, 1981.

[3] = system: erythrocytes in heparinized bovine blood; test: In-vitro hemolysis of erythrocytes in heparinized whole blood, absorbance at 413 nm; settings: 1 hour at 37° C.
Method: The effect of the compounds on the in-vitro hemolysis of erythrocytes in heparinized whole blood is monitored by a spectrophotometric method.
Various formulations and concentrations of the test compound are added to heparinized bovine blood and mixed gently in a 1.5 ml microcentrifuge tube. The sample is allowed to incubate for 1 hour at 37° C. At the end of incubation, the samples are removed from the incubator and centrifuged at 2000 rpm for 5 minutes. A 200 μl aliquot of the supernatant is removed from each sample into a 96 well microtiter plate and read at 413 nm. The absorbance of the test sample is compared to the control sample containing phosphate buffered saline, pH 7.2.

CCCCCCCCCC[N+](C)(C)CCCCCCCCCC.[Cl-] [Bardac ®, didecyl dimethyl ammonium chloride]
ATI in supernatant ([1]; Bardac 0.0004%, J3): 702 cpm/ml | ATI in supernatant ([1]; Bardac 0.0004%, J6): 18136 cpm/ml | ATI in supernatant ([1]; Bardac 0.0004%, J10): 117326 cpm/ml | ATI in supernatant ([1]; Bardac 0.0004%, J13): 74214 cpm/ml | ATI in supernatant ([1]; Bardac 0.0004%, J17): 50674 cpm/ml | ATI in supernatant ([1]; Bardac 0.0004%, J20): 22478 cpm/ml | ATI in supernatant ([1]; Bardac 0.0004%, J23): 13806 cpm/ml | ATI in supernatant ([1]; Bardac 0.0004%, J27): 7800 cpm/ml | ATI in supernatant ([1]; Bardac 0.0004%, J30): 4426 cpm/ml | ATI in supernatant ([1]; Bardac 0.002%, J3): 464 cpm/ml | ATI in supernatant ([1]; Bardac 0.002%, J6): 2472 cpm/ml | ATI in supernatant ([1]; Bardac 0.002%, J10): 16066 cpm/ml | ATI in supernatant ([1]; Bardac 0.002%, J13): 24902 cpm/ml | ATI in supernatant ([1]; Bardac 0.002%, J17): 77754 cpm/ml | ATI in supernatant ([1]; Bardac 0.002%, J20): 75554 cpm/ml | ATI in supernatant ([1]; Bardac 0.002%, J23): 101394 cpm/ml | ATI in supernatant ([1]; Bardac 0.002%, J27): 80560 cpm/ml | ATI in supernatant ([1]; Bardac 0.002%, J30): 64692 cpm/ml | ATI in supernatant ([1]; Bardac 0.004%, J3): 346 cpm/ml | ATI in supernatant ([1]; Bardac 0.004%, J6): 298 cpm/ml | ATI in supernatant ([1]; Bardac 0.004%, J10): 160 cpm/ml | ATI in supernatant ([1]; Bardac 0.004%, J13): 170 cpm/ml | ATI in supernatant ([1]; Bardac 0.004%, J17): 350 cpm/ml | ATI in supernatant ([1]; Bardac 0.004%, J20): 218 cpm/ml | ATI in supernatant ([1]; Bardac 0.004%, J23): 444 cpm/ml | ATI in supernatant ([1]; Bardac 0.004%, J27): 244 cpm/ml | ATI in supernatant ([1]; Bardac 0.004%, J30): 264 cpm/ml | ATI in supernatant ([1]; Bardac 0.006%, J3): 320 cpm/ml | ATI in supernatant ([1]; Bardac 0.006%, J6): 326 cpm/ml | ATI in supernatant ([1]; Bardac 0.006%, J10): 204 cpm/ml | ATI in supernatant ([1]; Bardac 0.006%, J13): 248 cpm/ml | ATI in supernatant ([1]; Bardac 0.006%, J17): 364 cpm/ml | ATI in supernatant ([1]; Bardac 0.006%, J20): 180 cpm/ml | ATI in supernatant ([1]; Bardac 0.006%, J23): 328 cpm/ml | ATI in supernatant ([1]; Bardac 0.006%, J27): 588 cpm/ml | ATI in supernatant ([1]; Bardac 0.006%, J30): 196 cpm/ml | ATI in supernatant ([1]; Bardac 0.01%, J3): 334 cpm/ml | ATI in supernatant ([1]; Bardac 0.01%, J6): 222 cpm/ml | ATI in supernatant ([1]; Bardac 0.01%, J10): 1768 cpm/ml | ATI in supernatant ([1]; Bardac 0.01%, J13): 1592 cpm/ml | ATI in supernatant ([1]; Bardac 0.01%, J17): 190 cpm/ml | ATI in supernatant ([1]; Bardac 0.01%, J20): 390 cpm/ml | ATI in supernatant ([1]; Bardac 0.01%, J23): 1328 cpm/ml | ATI in supernatant ([1]; Bardac 0.01%, J27): 780 cpm/ml | ATI in supernatant ([1]; Bardac 0.01%, J30): 1000 cpm/ml | growth ([2]; 0.05% vol/vol, 1 min): + | growth ([2]; 0.05% vol/vol, 3 min): + | growth ([2]; 0.05% vol/vol, 5 min): + | growth ([2]; 0.05% vol/vol, 15 min): + | growth ([2]; 0.05% vol/vol, 30 min): + | growth ([2]; 0.05% vol/vol, 60 min): + | growth ([2]; 0.1% vol/vol, 1 min): + | growth ([2]; 0.1% vol/vol, 3 min): + | growth ([2]; 0.1% vol/vol, 5 min): + | growth ([2]; 0.1% vol/vol, 15 min): + | growth ([2]; 0.1% vol/vol, 30 min): + | growth ([2]; 0.1% vol/vol, 60 min): + | growth ([2]; 0.5% vol/vol, 1 min): + | growth ([2]; 0.5% vol/vol, 3 min): + | growth ([2]; 0.5% vol/vol, 5 min): + | growth ([2]; 0.5% vol/vol, 15 min): + | growth ([2]; 0.5% vol/vol, 30 min): + | growth ([2]; 0.5% vol/vol, 60 min): + | growth ([2]; 1% vol/vol, 1 min): + | growth ([2]; 1% vol/vol, 3 min): + | growth ([2]; 1% vol/vol, 5 min): + | growth ([2]; 1% vol/vol, 15 min): + | growth ([2]; 1% vol/vol, 30 min): − | growth ([2]; 1% vol/vol, 60 min): − | growth ([2]; 5% vol/vol, 1 min): + | growth ([2]; 5% vol/vol, 3 min): + | growth ([2]; 5% vol/vol, 5 min): − | growth ([2]; 5% vol/vol, 15 min): − | growth ([2]; 5% vol/vol, 30 min): − | growth ([2]; 5% vol/vol, 60 min): − | growth ([2]; 10% vol/vol, 1 min): − | growth ([2]; 10% vol/vol, 3 min): − | growth ([2]; 10% vol/vol, 5 min): − | growth ([2]; 10% vol/vol, 15 min): − | growth ([2]; 10% vol/vol, 30 min): − | growth ([2]; 10% vol/vol, 60 min): − | growth ([2]; 25% vol/vol, 1 min): − | growth ([2]; 25% vol/vol, 3 min): − | growth ([2]; 25% vol/vol, 5 min): − | growth ([2]; 25% vol/vol, 15 min): − | growth ([2]; 25% vol/vol, 30 min): − | growth ([2]; 25% vol/vol, 60 min): − | Concentration at which hemolysis is not observed [3]: 0.001% and 0.0125% and 0.0005%
